One block for each compound: values may come before it.
What was measured:
Format in all cases: functional
OVCAR-4 = experiment: Growth inhibition of human OVCAR4 cells after 48 hrs by SRB protein assay; conditions: OVCAR-4, 48 h; for TGI: read-out: Log TGI (converted)
HOP-92 = experiment: Growth inhibition of human HOP92 cells after 48 hrs by SRB protein assay; conditions: HOP-92, 48 h; for TGI: read-out: Log TGI (converted)
A498 = experiment: Growth inhibition of human A498 cells after 48 hrs by SRB protein assay; conditions: A498, 48 h; for TGI: read-out: Log TGI (converted)
BT-549 = experiment: Growth inhibition of human BT549 cells after 48 hrs by SRB protein assay; conditions: BT-549, 48 h; for TGI: read-out: Log TGI (converted)
NCI-H226 = experiment: Growth inhibition of human NCI-H226 cells after 48 hrs by SRB protein assay; conditions: NCI-H226, 48 h; for TGI: read-out: Log TGI (converted)
U-251 = experiment: Growth inhibition human U251 of cells after 48 hrs by SRB protein assay; conditions: U-251, 48 h; for TGI: read-out: Log TGI (converted)
M14 = experiment: Growth inhibition of human M14 cells after 48 hrs by SRB protein assay; conditions: M14, 48 h; for TGI: read-out: Log TGI (converted)
Hs-578T = experiment: Growth inhibition of human HS578T cells after 48 hrs by SRB protein assay; conditions: for TGI: read-out: Log TGI (converted)
KM12 = experiment: Growth inhibition of human KM12 cells after 48 hrs by SRB protein assay; conditions: KM12, 48 h; for TGI: read-out: Log TGI (converted)
K562 = experiment: Growth inhibition of human K562 cells after 48 hrs by SRB protein assay; conditions: K562, 48 h; for TGI: read-out: Log TGI (converted)
NCI-H322M = experiment: Growth inhibition of human NCI-H322M cells after 48 hrs by SRB protein assay; conditions: for TGI: read-out: Log TGI (converted)
MOLT-4 = experiment: Growth inhibition of human MOLT4 cells after 48 hrs by SRB protein assay; conditions: MOLT-4, 48 h; for TGI: read-out: Log TGI (converted)
SK-MEL-5 = experiment: Growth inhibition of human SK-MEL-5 cells after 48 hrs by SRB protein assay; conditions: SK-MEL-5, 48 h; for TGI: read-out: Log TGI (converted)
HOP-62 = experiment: Growth inhibition of human HOP62 cells after 48 hrs by SRB protein assay; conditions: HOP-62, 48 h; for TGI: read-out: Log TGI (converted)
TK-10 = experiment: Growth inhibition of human TK10 cells after 48 hrs by SRB protein assay; conditions: TK-10, 48 h; for TGI: read-out: Log TGI (converted)
SF-268 [1] = experiment: Growth inhibition of human SF268 cells after 48 hrs by SRB protein assay; conditions: SF-268, 48 h; for TGI: read-out: Log TGI (converted)
NCI/ADR-RES = experiment: Growth inhibition of human NCI/ADR-RES cells after 48 hrs by SRB protein assay; conditions: for TGI: read-out: Log TGI (converted)
SF-268 [2] = experiment: Cytotoxicity against human SF268 cells assessed as growth at 100 uM after 48 hrs by SRB protein assay relative to control; conditions: SF-268, 48 h, read-out: Activity
MCF7 = experiment: Cytotoxicity against human MCF7 cells assessed as growth at 100 uM after 48 hrs by SRB protein assay relative to control; conditions: MCF7, 48 h, read-out: Activity
NCI-H460 = experiment: Cytotoxicity against human […] cells assessed as growth at 100 uM after 48 hrs by SRB protein assay relative to control; conditions: NCI-H460, 48 h, read-out: Activity

Structure (SMILES): Nc1nc2[nH]cnc2c(=S)[nH]1 [THIOGUANINE]
GI50 (OVCAR-4): 1.51 µM
TGI (OVCAR-4): 100 µM
GI50 (HOP-92): 0.741 µM
TGI (HOP-92): 24 µM
GI50 (A498): 6.76 µM
TGI (A498): 95.5 µM
GI50 (BT-549): 3.63 µM
TGI (BT-549): 162 µM
GI50 (NCI-H226): 4.07 µM
TGI (NCI-H226): 97.7 µM
GI50 (U-251): 4.9 µM
TGI (U-251): 240 µM
GI50 (M14): 0.589 µM
TGI (M14): 14.5 µM
GI50 (Hs-578T): 7.41 µM
TGI (Hs-578T): 182 µM
GI50 (KM12): 1.74 µM
TGI (KM12): 31.6 µM
GI50 (K562): 0.407 µM
TGI (K562): 70.8 µM
GI50 (NCI-H322M): 7.41 µM
TGI (NCI-H322M): 224 µM
GI50 (MOLT-4): 0.269 µM
TGI (MOLT-4): 15.5 µM
GI50 (SK-MEL-5): 3.55 µM
TGI (SK-MEL-5): 16.6 µM
GI50 (HOP-62): 0.741 µM
TGI (HOP-62): 28.8 µM
GI50 (TK-10): 1.05 µM
TGI (TK-10): 79.4 µM
GI50 (SF-268 [1]): 1.15 µM
TGI (SF-268 [1]): 158 µM

Structure (SMILES): O=C(Cc1csc2nc(-c3ccc(Br)cc3)cn12)N/N=C/c1ccc(O)cc1
GI50 (OVCAR-4): > 100 µM
TGI (OVCAR-4): > 100 µM
GI50 (NCI/ADR-RES): 21.4 µM
TGI (NCI/ADR-RES): 61.7 µM
GI50 (HOP-92): 19.1 µM
TGI (HOP-92): 69.2 µM
GI50 (BT-549): 13.5 µM
TGI (BT-549): 56.2 µM
growth at 100 µM (SF-268 [2]): 42%
growth at 100 µM (MCF7): 22%
GI50 (U-251): 21.4 µM
TGI (U-251): > 100 µM
GI50 (M14): 10.2 µM
TGI (M14): 23.4 µM
GI50 (Hs-578T): 23.4 µM
TGI (Hs-578T): 93.3 µM
GI50 (KM12): 17.8 µM
TGI (KM12): 75.9 µM
GI50 (K562): 1.82 µM
TGI (K562): 7.08 µM
GI50 (NCI-H322M): 4.37 µM
TGI (NCI-H322M): 34.7 µM
GI50 (MOLT-4): 4.17 µM
TGI (MOLT-4): 10 µM
growth at 100 µM (NCI-H460): 11%
GI50 (SK-MEL-5): 7.08 µM
TGI (SK-MEL-5): 22.4 µM
GI50 (HOP-62): 18.2 µM
TGI (HOP-62): 53.7 µM
GI50 (TK-10): 9.77 µM
TGI (TK-10): 33.1 µM
GI50 (SF-268 [1]): > 100 µM
TGI (SF-268 [1]): > 100 µM

Second part, led by results:

GI50 (OVCAR-4): 46.8 µM
GI50 (BT-549): 12.9 µM
GI50 (U-251): 12.9 µM
GI50 (NCI-H322M): 19.1 µM
GI50 (MOLT-4): 6.76 µM
GI50 (SK-MEL-5): 5.62 µM
Structure (SMILES): O=C(Cc1csc2nc(-c3ccc(Br)cc3)cn12)N/N=C/c1ccccc1
TGI (OVCAR-4): > 100 µM
GI50 (NCI/ADR-RES): 13.5 µM
TGI (NCI/ADR-RES): 67.6 µM
GI50 (HOP-92): 12.3 µM
TGI (HOP-92): 37.2 µM
TGI (BT-549): 49 µM
growth at 100 µM (SF-268 [2]): 65%
growth at 100 µM (MCF7): 57%
TGI (U-251): 32.4 µM
GI50 (M14): 20.9 µM
TGI (M14): > 100 µM
GI50 (Hs-578T): 16.2 µM
TGI (Hs-578T): 51.3 µM
GI50 (KM12): 26.3 µM
TGI (KM12): > 100 µM
TGI (K562): 7.94 µM
TGI (NCI-H322M): 93.3 µM
TGI (MOLT-4): 37.2 µM
growth at 100 µM (NCI-H460): 12%
TGI (SK-MEL-5): 26.9 µM
GI50 (HOP-62): 15.1 µM
TGI (HOP-62): 39.8 µM
GI50 (TK-10): 14.1 µM
TGI (TK-10): 41.7 µM
GI50 (SF-268 [1]): > 100 µM
TGI (SF-268 [1]): > 100 µM

GI50 (OVCAR-4): 28.2 µM
GI50 (BT-549): 12.9 µM
GI50 (U-251): 13.8 µM
GI50 (K562): 2.95 µM
GI50 (NCI-H322M): 14.8 µM
GI50 (MOLT-4): 3.47 µM
GI50 (SK-MEL-5): 8.91 µM
Structure (SMILES): COc1cccc(OC)c1/C=N/NC(=O)Cc1csc2nc(-c3ccc(Br)cc3)cn12
TGI (OVCAR-4): > 100 µM
GI50 (NCI/ADR-RES): 12.9 µM
TGI (NCI/ADR-RES): 35.5 µM
GI50 (HOP-92): 13.8 µM
TGI (HOP-92): 35.5 µM
TGI (BT-549): 33.9 µM
growth at 100 µM (SF-268 [2]): 82%
growth at 100 µM (MCF7): 27%
TGI (U-251): 31.6 µM
GI50 (M14): 15.1 µM
TGI (M14): 72.4 µM
GI50 (Hs-578T): 11.5 µM
TGI (Hs-578T): 45.7 µM
GI50 (KM12): 8.91 µM
TGI (KM12): > 100 µM
TGI (K562): 6.92 µM
TGI (NCI-H322M): 61.7 µM
TGI (MOLT-4): 8.13 µM
growth at 100 µM (NCI-H460): 15%
TGI (SK-MEL-5): 42.7 µM
GI50 (HOP-62): 13.2 µM
TGI (HOP-62): 30.2 µM
GI50 (TK-10): 16.2 µM
TGI (TK-10): 51.3 µM
GI50 (SF-268 [1]): > 100 µM
TGI (SF-268 [1]): > 100 µM

GI50 (OVCAR-4): 37.2 µM
GI50 (BT-549): 25.7 µM
GI50 (NCI-H226): 31.6 µM
GI50 (U-251): 20.4 µM
GI50 (NCI-H322M): 24.5 µM
GI50 (MOLT-4): 1 µM
GI50 (SK-MEL-5): 44.7 µM
Structure (SMILES): O=C(Cc1csc2nc(-c3ccc(Br)cc3)cn12)N/N=C/c1ccc(Cl)cc1Cl
TGI (OVCAR-4): > 100 µM
GI50 (NCI/ADR-RES): 17.4 µM
TGI (NCI/ADR-RES): 52.5 µM
GI50 (HOP-92): 28.2 µM
TGI (HOP-92): > 100 µM
GI50 (A498): 29.5 µM
TGI (A498): 63.1 µM
TGI (BT-549): 77.6 µM
growth at 100 µM (SF-268 [2]): 94%
growth at 100 µM (MCF7): 46%
TGI (NCI-H226): 91.2 µM
TGI (U-251): 44.7 µM
GI50 (M14): 33.1 µM
TGI (M14): > 100 µM
GI50 (Hs-578T): 31.6 µM
TGI (Hs-578T): 89.1 µM
GI50 (KM12): 38 µM
TGI (KM12): > 100 µM
TGI (NCI-H322M): 69.2 µM
TGI (MOLT-4): 26.3 µM
growth at 100 µM (NCI-H460): 24%
TGI (SK-MEL-5): > 100 µM
GI50 (HOP-62): 16.6 µM
TGI (HOP-62): 34.7 µM
GI50 (SF-268 [1]): > 100 µM
TGI (SF-268 [1]): > 100 µM

GI50 (BT-549): 10 µM
GI50 (NCI-H226): 1.95 µM
GI50 (U-251): 3.63 µM
GI50 (K562): 0.0372 µM
GI50 (NCI-H322M): 2.14 µM
GI50 (MOLT-4): 2.34 µM
GI50 (SK-MEL-5): 2.95 µM
Structure (SMILES): O=C(Cc1csc2nc(-c3ccc(Br)cc3)cn12)N/N=C/c1ccccc1O
GI50 (NCI/ADR-RES): 2.51 µM
TGI (NCI/ADR-RES): 6.76 µM
GI50 (HOP-92): 2.09 µM
TGI (HOP-92): 14.5 µM
TGI (BT-549): 22.4 µM
growth at 100 µM (SF-268 [2]): 50%
growth at 100 µM (MCF7): 7%
TGI (NCI-H226): 7.76 µM
TGI (U-251): 15.1 µM
GI50 (M14): 2.57 µM
TGI (M14): 7.76 µM
GI50 (Hs-578T): 13.5 µM
TGI (Hs-578T): 42.7 µM
GI50 (KM12): 3.63 µM
TGI (KM12): 17 µM
TGI (K562): 2.95 µM
TGI (NCI-H322M): 10.7 µM
TGI (MOLT-4): 10.7 µM
growth at 100 µM (NCI-H460): 0%
TGI (SK-MEL-5): 10.7 µM
GI50 (HOP-62): 3.89 µM
TGI (HOP-62): 14.8 µM
GI50 (TK-10): 2.04 µM
TGI (TK-10): 8.71 µM
GI50 (SF-268 [1]): > 100 µM
TGI (SF-268 [1]): > 100 µM

Source: ChEMBL document CHEMBL1143799, “Synthesis and primary cytotoxicity evaluation of new imidazo[2,1-b]thiazole derivatives” (2007)
